Key:
Format in all cases: functional
A-375 [1] = assay: Cell cycle arrest in human A375 cells assessed as accumulation at G2/M phase at 1 uM after 24 hrs by propidium iodide staining-based flow cytometry (reference value: 7.91 to 21.07%)
A-375 [2] = assay: Cell cycle arrest in human A375 cells assessed as accumulation at G1 phase at 3 uM after 24 hrs by propidium iodide staining-based flow cytometry (reference value: 59.02 to 60.22%)
A-375 [3] = assay: Cell cycle arrest in human A375 cells assessed as accumulation at G2/M phase at 3 uM after 24 hrs by propidium iodide staining-based flow cytometry (reference value: 7.91 to 21.07%)
A-375 [4] = assay: Induction of apoptosis in human A375 cells assessed as necrotic cells at 10 uM after 24 hrs by Annexin V-FITC/propidium iodide staining based flow cytometry (reference value: 0.635 to 3.12%)
A-375 [5] = assay: Induction of apoptosis in human A375 cells assessed as viable cells at 3 uM after 36 hrs by Annexin V-FITC/propidium iodide staining based flow cytometry (reference value: 90.6 to 94.3%); details: A-375, 36 h, read-out: Activity
A-375 [6] = assay: Induction of apoptosis in human A375 cells assessed as early apoptotic cells at 10 uM after 24 hrs by Annexin V-FITC/propidium iodide staining based flow cytometry (reference value: 1.22 to 1.64%)
A-375 [7] = assay: Cell cycle arrest in human A375 cells assessed as accumulation at G1 phase at 1 uM after 24 hrs by propidium iodide staining-based flow cytometry (reference value: 59.02 to 60.22%)
A-375 [8] = assay: Induction of apoptosis in human A375 cells assessed as viable cells at 1 uM after 24 hrs by Annexin V-FITC/propidium iodide staining based flow cytometry (reference value: 90.6 to 94.3%); details: A-375, 24 h, read-out: Activity
A-375 [9] = assay: Cell cycle arrest in human A375 cells assessed as accumulation at G2/M phase at 3 uM after 12 hrs by propidium iodide staining-based flow cytometry (reference value: 7.91 to 21.07%)
A-375 [10] = assay: Cell cycle arrest in human A375 cells assessed as accumulation at S phase at 1 uM after 24 hrs by propidium iodide staining-based flow cytometry (reference value: 20.08 to 31.09%)

COc1ccc(-n2cc(NC(=O)Cn3ccc(-c4cccc(Cl)c4)n3)cn2)cc1
Activity (A-375 [1]): 15.89% | Activity (A-375 [2]): 40.19 - 43.48% | Activity (A-375 [3]): 9.69 - 9.82% | Activity (A-375 [4]): 7.54% | viability at 3 µM (A-375 [5]): 32.8% | Activity (A-375 [6]): 1.81% | Activity (A-375 [7]): 50.93% | viability at 1 µM (A-375 [8]): 79.5% | Activity (A-375 [9]): 11.44% | Activity (A-375 [10]): 29.07%

Reference: ChEMBL document CHEMBL4190403, “Design, synthesis, and biological evaluation of pyrazole derivatives containing acetamide bond as potential BRAFV600E inhibitors” (Bioorg Med Chem Lett, 2018)
